# Results published in paper PMC10382042, “Brevetoxin versus Brevenal Modulation of Human Nav1 Channels” (Marine Drugs, 2023).
# pEC50: −log10 of the molar value. Several values for one entry are separate records, joined by “and”; a condition that tells them apart may be missing. Equal values may be shown once. Read-outs that look alike come from different tables or passages of the source.
# Legend:
# Format in all cases: cell-based
# [1] = molecular target: T1, human Nav1.5 (Homo sapiens, UniProt Q14524); assay: cell-based; details: for pEC50: read-out: Nav1.5 Ipeak EC50
# Method: (§1) Functional modulation of recombinant human voltage-gated sodium (Nav) channels exposed to marine PbTx-3 and brevenal was assessed by automated patch-clamp electrophysiology. Neuronal Nav1.2 (CNS) and Nav1.7 (PNS), in addition to muscle Nav1.4 (skeletal) and Nav1.5 (cardiac) sodium channels, were patch-clamped in mammalian cells. Whole-cell currents mediated by human Nav1.4 and Nav1.7 overexpressed in CHO-K1 cells, as well as human Nav1.2 and Nav1.5 overexpressed in HEK293 cells, were recorded at room temperature. Currents were elicited by 25 ms test pulses to −20 mV from a holding potential (Vh) of −120 mV, delivered for 5 min at 0.1 Hz, after each full-bath solution exchange to allow current amplitude and kinetics to reach a steady state.
# (§2) Current traces were scaled to maximal Ipeak and are presented as insets in Figure 2 to underline the effects (or lack thereof) of PbTx-3 and brevenal on the current kinetics of the four Nav isoforms studied. Inactivation time constants (τinact) in control and the presence of PbTx-3 and brevenal were estimated by exponential fits (see Methods) to the current decay between 15% and 85% of the depolarizing pulse. Single exponential fits adequately described τinact for the neuronal and the skeletal muscle Nav isoforms, whereas a double exponential fit was required to approximate open channel inactivation of the cardiac Nav current. Consistent with the enhancement of Ilate observed for Nav1.2, Nav1.4, and Nav1.5 in the presence of PbTx-3, significant concentration-dependent increases in the Yinf asymptote were detected (Tables S1–S3). These were mirrored by brevenal exposure in Nav1.2- and Nav1.4-mediated currents. Nevertheless, the estimated τinacts appeared insensitive to PbTx-3 and brevenal modification, with the notable exception of Nav1.4, for which high concentrations of PbTx-3 and brevenal caused a measurable slowing of the open channel inactivation time constant (Table S2).
# (§3) Recording solutions: The extracellular solution contained (in mM) 140 NaCl, 5 KCl, 2 CaCl2, 2 MgCl2, 10 glucose, and 10 HEPES (pH 7.4 with NaOH, 298 ± 3 mOsmol/k g). Control intracellular solution (in mM): 60 CsF, 70 CsCl, 10 EGTA, 10 glucose, and 10 HEPES (pH 7.2 with CsOH, 285 ± 3 mOsmol/kg). Intracellular exposure to brevenal (1 μM) was achieved by including it in the control intracellular solution during chip filling.
# (§4) HEK293 cells heterologously expressing human Nav1.2 (Scottish Biomedical, a kind gift from the Petrous lab, Florey Institute of Neuroscience and Mental Health, Melbourne, VIC Australia) and Nav1.5 (ChanTest Corp., Cleveland, OH, USA) were cultured in DMEM containing 10% v/v FBS and selection antibiotics to enable stable expression as per the manufacturer’s recommendation. CHOK1 expressing Nav1.4 and Nav1.7 (ChanTest) was cultured in DMEM/F12 containing 10% v/v FBS and selection antibiotics supporting stable expression as recommended by the manufacturer. Cells were maintained in a humidified 5% CO2 incubator at 37 °C, grown in T25 flasks to 70–80% confluence, and passaged every 3–4 days using TrypLE Express (Invitrogen). After harvesting with TrypLE, cells were resuspended to 10^5 cells/mL in cold extracellular solution and allowed to recover for 30 min at 4 °C before recording.
# (§5) Electrophysiology: Automated patch-clamp (APC) recordings were performed in a PatchLiner Octo (Nanion Technologies GmbH, Munich, Germany) equipped with two EPC-10 quadro patch-clamp amplifiers (HEKA Electronik, Lambrecht/Pfalz, Germany). PatchControl HT (Nanion) was used for cell capture, seal formation, and establishment of the whole-cell configuration, whilst voltage was controlled and currents were sampled with PatchMaster (HEKA Electronics). Recordings were performed under the whole-cell configuration using single-hole planar medium resistance NPC-16 chips (Rchip, resistance of ~2.5 MΩ) at room temperature (22–24 °C).
# (§6) Cells between passages 6 and 12 were used. […]
# [2] = molecular target: human Nav1.4 (Homo sapiens, UniProt P35499); assay: Automated patch-clamp, concentration-response and inactivation fits, Nav1.4 in CHO-K1; details: for Nav1.4 yinf / Nav1.4 τ inact: n = 4
# Method: as §1, §2, §3, §4, §5, §6
# [3] = molecular target: human Nav1.2 (Homo sapiens, UniProt Q99250); assay: Automated patch-clamp, concentration-response and inactivation fits, Nav1.2 in HEK293; details: for Nav1.2 yinf: single exponential fit
# Method: as §1, §2, §3, §4, §5, §6
# [4] = molecular target: T1, human Nav1.5; assay: Automated patch-clamp I-V relationship (voltage dependence of activation, Gmax), Nav1.5
# Method: (§7) The voltage dependence of recombinant Nav channel-mediated currents exposed to PbTx-3 and brevenal was evaluated using current–voltage (I-V) relationships built for Ipeak and Ilate elicited by a standard stimulation protocol (25 ms, −100 to +60 mV, Vh −120 mV, 0.1 Hz).
# (§8) The effects of extracellular exposure to PbTx-3 (PbTx-3o = 1 μM) and brevenal (Brevenalo = 10 μM) on the activation of Nav channels in neuronal and muscle cells were examined under normal intracellular ionic conditions. […] To investigate the possibility of overlapping binding of these compounds within Nav channels, Nav whole-cell currents were recorded using an intracellular solution supplemented with brevenal (Brevenali = 1 μM). After equilibration, extracellular PbTx-3o (1 μM) was applied and its modulatory effects over the current kinetics and voltage dependence of activation were compared.
# (§9) Figure 4 and Figure 5 display representative current traces mediated by human recombinant Nav channels in control and upon exposure to PbTx-3 and brevenal. I-V plots from the normalized peak and late (when present) currents amplitudes (Ipeak/Ipeak^max and Ilate/Ipeak^max) were fitted to a Boltzmann function rendering the half-maximal activation potential (V0.5) and normalized macroscopic conductance (Gmax) parameters (see Section 4). The changes in V0.5 (ΔV0.5 = V0.5^Comp − V0.5^Ctr) and relative Gmax (Gmax^Rel = Gmax^Comp/Gmax^Ctr) observed in the presence of PbTx-3 and brevenal and control conditions were then calculated and compared for all assayed conditions.
# as §3, §5
# (§10) Peak I–V curves were fitted using:I(V) = (V − Vrev) × Gmax/(1 + exp ((V0.5 − V)/Vslope) where I is the macroscopic current, V is the command potential, Vrev is the reversal potential (mV), Gmax is the maximal conductance, V0.5 is the half-activation potential (mV), and Vslope is the slope factor (mV/e-fold).
# [5] = molecular target: human Nav1.7 (Homo sapiens, UniProt Q15858); assay: Automated patch-clamp I-V relationship (voltage dependence of activation, Gmax), Nav1.7
# Method: as §7, §8, §9, §3, §5, §10
# [6] = test pulse −20 mV, Vh −120 mV, extracellular, n = 5
# Sequence of human Nav1.7 (Q15858 whole entry): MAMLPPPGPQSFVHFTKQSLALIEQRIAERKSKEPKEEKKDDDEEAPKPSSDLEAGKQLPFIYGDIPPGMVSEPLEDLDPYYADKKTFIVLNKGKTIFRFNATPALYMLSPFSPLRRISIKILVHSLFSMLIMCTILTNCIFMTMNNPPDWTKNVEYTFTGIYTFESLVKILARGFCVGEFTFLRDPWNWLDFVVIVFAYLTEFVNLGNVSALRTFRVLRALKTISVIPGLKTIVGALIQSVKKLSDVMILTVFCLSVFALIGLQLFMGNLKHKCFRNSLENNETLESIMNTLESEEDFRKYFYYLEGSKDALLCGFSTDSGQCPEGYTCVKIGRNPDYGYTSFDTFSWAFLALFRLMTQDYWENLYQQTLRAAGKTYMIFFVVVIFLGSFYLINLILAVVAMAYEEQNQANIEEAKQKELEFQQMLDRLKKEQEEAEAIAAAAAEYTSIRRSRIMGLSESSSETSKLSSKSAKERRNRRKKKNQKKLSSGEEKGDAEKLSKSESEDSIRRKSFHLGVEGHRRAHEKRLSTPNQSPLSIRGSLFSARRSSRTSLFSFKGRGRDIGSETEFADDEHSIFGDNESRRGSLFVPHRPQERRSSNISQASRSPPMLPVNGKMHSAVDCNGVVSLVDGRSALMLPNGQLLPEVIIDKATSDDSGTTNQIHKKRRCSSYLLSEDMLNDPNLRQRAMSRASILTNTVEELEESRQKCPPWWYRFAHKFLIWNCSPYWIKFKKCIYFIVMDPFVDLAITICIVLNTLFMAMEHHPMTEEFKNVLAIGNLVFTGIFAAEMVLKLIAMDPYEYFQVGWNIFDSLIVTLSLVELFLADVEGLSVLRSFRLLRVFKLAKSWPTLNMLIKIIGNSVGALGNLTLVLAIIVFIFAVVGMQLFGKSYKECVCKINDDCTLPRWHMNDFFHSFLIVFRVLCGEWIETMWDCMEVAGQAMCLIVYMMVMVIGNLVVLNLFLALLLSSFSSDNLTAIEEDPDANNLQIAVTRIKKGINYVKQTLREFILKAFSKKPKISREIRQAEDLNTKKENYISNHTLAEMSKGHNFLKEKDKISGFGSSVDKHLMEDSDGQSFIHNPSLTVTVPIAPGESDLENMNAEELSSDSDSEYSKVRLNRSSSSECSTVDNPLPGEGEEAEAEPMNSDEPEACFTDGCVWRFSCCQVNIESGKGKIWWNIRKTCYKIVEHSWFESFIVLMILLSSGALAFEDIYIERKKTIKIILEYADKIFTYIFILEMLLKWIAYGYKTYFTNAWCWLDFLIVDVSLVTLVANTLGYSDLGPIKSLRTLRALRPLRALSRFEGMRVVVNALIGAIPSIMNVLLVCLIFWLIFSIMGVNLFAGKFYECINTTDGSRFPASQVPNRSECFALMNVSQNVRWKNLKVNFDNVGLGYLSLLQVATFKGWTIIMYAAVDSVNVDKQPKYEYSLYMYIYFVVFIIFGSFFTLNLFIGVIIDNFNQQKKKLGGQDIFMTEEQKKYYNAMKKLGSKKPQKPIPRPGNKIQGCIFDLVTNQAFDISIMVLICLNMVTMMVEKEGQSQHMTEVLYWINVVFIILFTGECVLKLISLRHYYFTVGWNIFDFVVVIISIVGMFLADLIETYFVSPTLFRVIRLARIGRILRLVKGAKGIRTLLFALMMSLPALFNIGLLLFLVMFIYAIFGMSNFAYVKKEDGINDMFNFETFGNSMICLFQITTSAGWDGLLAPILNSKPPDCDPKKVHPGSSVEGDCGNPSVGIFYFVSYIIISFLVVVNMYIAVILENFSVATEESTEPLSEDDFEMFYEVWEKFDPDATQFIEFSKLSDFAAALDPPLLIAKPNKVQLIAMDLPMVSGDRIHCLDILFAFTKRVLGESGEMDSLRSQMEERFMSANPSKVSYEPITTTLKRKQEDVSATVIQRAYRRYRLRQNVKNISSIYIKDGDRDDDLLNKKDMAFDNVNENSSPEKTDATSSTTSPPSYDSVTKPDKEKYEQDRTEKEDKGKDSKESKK
# Sequence of human Nav1.4 (P35499 whole entry): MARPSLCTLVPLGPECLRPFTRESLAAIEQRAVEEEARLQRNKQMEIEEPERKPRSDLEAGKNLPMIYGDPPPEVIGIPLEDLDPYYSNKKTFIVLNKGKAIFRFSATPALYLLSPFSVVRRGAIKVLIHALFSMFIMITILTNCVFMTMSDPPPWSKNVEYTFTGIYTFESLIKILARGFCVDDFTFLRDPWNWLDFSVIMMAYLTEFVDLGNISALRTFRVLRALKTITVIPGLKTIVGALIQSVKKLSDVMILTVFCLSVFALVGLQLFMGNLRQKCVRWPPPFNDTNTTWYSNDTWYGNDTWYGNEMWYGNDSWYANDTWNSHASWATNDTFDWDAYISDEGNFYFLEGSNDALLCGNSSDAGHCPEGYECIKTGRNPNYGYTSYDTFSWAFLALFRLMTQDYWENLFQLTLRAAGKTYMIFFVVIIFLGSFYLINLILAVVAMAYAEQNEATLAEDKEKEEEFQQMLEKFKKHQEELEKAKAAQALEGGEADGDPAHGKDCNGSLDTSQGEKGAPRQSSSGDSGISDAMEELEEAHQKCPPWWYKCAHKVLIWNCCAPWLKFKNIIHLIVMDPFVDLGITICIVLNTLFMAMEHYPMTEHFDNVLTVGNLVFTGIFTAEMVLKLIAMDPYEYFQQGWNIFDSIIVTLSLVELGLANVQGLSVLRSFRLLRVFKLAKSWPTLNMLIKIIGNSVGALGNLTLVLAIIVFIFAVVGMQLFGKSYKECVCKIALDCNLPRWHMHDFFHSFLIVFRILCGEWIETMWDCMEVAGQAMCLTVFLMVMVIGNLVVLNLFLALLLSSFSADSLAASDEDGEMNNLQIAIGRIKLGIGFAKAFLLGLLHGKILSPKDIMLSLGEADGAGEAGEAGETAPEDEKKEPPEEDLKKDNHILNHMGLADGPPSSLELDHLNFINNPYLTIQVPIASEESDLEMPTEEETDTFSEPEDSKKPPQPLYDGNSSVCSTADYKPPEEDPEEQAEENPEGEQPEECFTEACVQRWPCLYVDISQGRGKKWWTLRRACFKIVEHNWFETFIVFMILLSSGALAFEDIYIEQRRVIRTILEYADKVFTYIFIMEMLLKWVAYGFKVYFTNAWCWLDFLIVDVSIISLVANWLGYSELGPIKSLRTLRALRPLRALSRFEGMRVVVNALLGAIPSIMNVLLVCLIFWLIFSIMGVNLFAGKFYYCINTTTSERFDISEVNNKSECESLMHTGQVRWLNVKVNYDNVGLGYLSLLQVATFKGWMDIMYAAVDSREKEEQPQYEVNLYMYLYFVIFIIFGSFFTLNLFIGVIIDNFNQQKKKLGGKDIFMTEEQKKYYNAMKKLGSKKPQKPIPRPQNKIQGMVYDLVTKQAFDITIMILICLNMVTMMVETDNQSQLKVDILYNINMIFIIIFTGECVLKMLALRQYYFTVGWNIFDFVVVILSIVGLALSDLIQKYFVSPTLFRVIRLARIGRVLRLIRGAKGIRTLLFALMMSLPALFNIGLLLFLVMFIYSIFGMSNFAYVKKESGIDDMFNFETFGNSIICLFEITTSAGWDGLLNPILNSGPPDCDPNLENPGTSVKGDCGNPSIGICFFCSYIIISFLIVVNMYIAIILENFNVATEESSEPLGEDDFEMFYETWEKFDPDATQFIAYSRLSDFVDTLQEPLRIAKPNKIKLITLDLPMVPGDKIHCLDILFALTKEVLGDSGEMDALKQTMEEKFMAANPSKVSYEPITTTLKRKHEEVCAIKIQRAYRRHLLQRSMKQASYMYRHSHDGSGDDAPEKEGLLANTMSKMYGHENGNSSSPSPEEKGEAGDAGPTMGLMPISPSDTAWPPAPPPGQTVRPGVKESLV
smiles,measurement,setting,value
C=C/C=C\CC[C@H]1O[C@H]2CC[C@@]3(C)O[C@H]4[C@@H](O)C[C@@]5(C)O[C@@H](CC/C=C(C)/C(C)=C/C=O)[C@@H](C)C[C@H]5O[C@@H]4C[C@@H]3O[C@@H]2CC[C@@]1(C)O [Brevenal],Nav1.5 A1Rel,"[1]; 10^-5 M, n = 4",0.77±0.05
same,Nav1.5 τ 1inact,"[1]; 10^-5 M, n = 4",0.44 ± 0.01 ms
same,Nav1.5 τ 2inact,"[1]; 10^-5 M, n = 4",1.79 ± 0.06 ms
same,Nav1.5 A1Rel,"[1]; 10^-6 M, n = 4",0.77±0.07
same,Nav1.5 τ 1inact,"[1]; 10^-6 M, n = 4",0.46 ± 0.01 ms
same,Nav1.5 τ 2inact,"[1]; 10^-6 M, n = 4",2.05 ± 0.21 ms
same,Nav1.5 A1Rel,"[1]; 10^-9 M, n = 4",0.73±0.07
same,Nav1.5 τ 1inact,"[1]; 10^-9 M, n = 4",0.45 ± 0.01 ms
same,Nav1.5 τ 2inact,"[1]; 10^-9 M, n = 4",1.77 ± 0.34 ms
same,pEC50,"[1]; inhibition of peak current, −20 mV, Vh −120 mV, n = 5",7.77
same,Nav1.5 Ilate FC^Max (maximal fold change),"[1]; not significant vs control, −20 mV, Vh −120 mV, n = 5",1.3 ± 0.2
same,Nav1.5 Ipeak FC^Max (maximal fold change),[1]; [6],0.4 ± 0.1
same,Nav1.4 yinf,[2]; 10^-5 M,0.19±0.03
same,Nav1.4 τ inact,[2]; 10^-5 M,1.16 ± 0.15 ms
same,Nav1.4 yinf,[2]; 10^-6 M,0.14±0.03
same,Nav1.4 yinf,[2]; 10^-9 M,0.09±0.01
same,Nav1.4 τ inact,[2]; 10^-9 M,0.71 ± 0.11 ms
same,fold lower potency than PbTx-3 at enhancing Nav1.4-mediated Ilate,[2]; Brevenal EC50 vs PbTx-3 EC50,~ 25 fold
same,pEC50,"[2]; enhancement of late current, −20 mV, Vh −120 mV, n = 5, read-out: Nav1.4 Ilate EC50",7.00
same,pEC50,"[2]; inhibition of peak current, −20 mV, Vh −120 mV, n = 5, read-out: Nav1.4 Ipeak EC50",8.11
same,Nav1.4 Ilate FC^Max (maximal fold change),[2]; [6],4.1 ± 0.8
same,Nav1.4 Ipeak FC^Max (maximal fold change),[2]; [6],0.1 ± 0.1
same,Nav1.4 Ilate FC^Max (maximal fold change),"[2]; test pulse −20 mV, Vh −120 mV, extracellular, n = 5, listed as brevenal",4.1
same,Nav1.2 τ inact,"[3]; 10^-5 M, n = 4",0.75 ± 0.10 ms
same,Nav1.2 yinf,"[3]; 10^-5 M, n = 4",0.12±0.06
same,Nav1.2 τ inact,"[3]; 10^-6 M, n = 4",0.65 ± 0.08 ms
same,Nav1.2 yinf,"[3]; 10^-6 M, n = 4",0.10±0.07
same,Nav1.2 τ inact,"[3]; 10^-9 M, n = 4",0.74 ± 0.8 ms
same,Nav1.2 yinf,"[3]; 10^-9 M, n = 4",0.08±0.04
same,pEC50,"[3]; inhibition of peak current, −20 mV, Vh −120 mV, n = 5, read-out: Nav1.2 Ipeak EC50",7.74
same,Nav1.2 Ipeak FC^Max (maximal fold change),[3]; [6],0.6 ± 0.1
same,ΔV0.5 of Nav1.5 activation,"[4]; Brevenalo 10 μM, n = 7",0.1 ± 1.4 mV
same,relative Gmax of Nav1.5,"[4]; brevenal 10 μM extracellular, n = 7",0.3 ± 0.1
same,Nav1.7 V0.5,"[5]; Brevenali-occupied channels (intracellular 1 μM), n = 4, control −20.0 ± 2.4 mV",−16.6 ± 1.7 mV
same,decrease in Nav1.7 Gmax,[5]; Brevenalo 10 μM,~ 10%
same,Gmax^Rel of Nav1.7,"[5]; Brevenalo 10 μM, n = 5",0.9 ± 0.1
same,shift in V0.5 of Nav1.7,"[5]; Brevenalo 10 μM, n = 6",−4.5 ± 0.4 mV
"C=C(CO)C[C@@H]1C[C@H](O)[C@]2(C)OC3CC4OC5C[C@]6(C)O[C@]7(C)CCC8OC9C[C@]%10(C)OC%11C(C)=CC(=O)OC%11CC%10OC9C[C@@H](C)C8OC7CC6O[C@@]5(C)C/C=C\C4OC3CC2O1 (stereo partly shown) [PbTx-3, Brevetoxin PbTx-3]",Nav1.5 A1Rel,[1],0.82±0.05 and 0.72±0.01 and 0.71±0.06
same,Nav1.5 A2Rel,[1],0.18±0.05 and 0.28±0.01 and 0.29±0.06
same,Nav1.5 Ilate FC^Max (maximal fold change),[1],1.8 ± 0.1
same,Nav1.5 Ipeak FC^Max (maximal fold change),[1],0.2 ± 0.1
same,Nav1.5 τ 1inact,[1],0.46 ± 0.03 ms and 0.48 ± 0.06 ms and 0.45 ± 0.02 ms
same,Nav1.5 τ 2inact,[1],2.42 ± 0.52 ms and 2.67 ± 0.78 ms and 1.48 ± 0.31 ms
same,pEC50,[1],8.66
same,Nav1.4 Ipeak FC^Max (maximal fold change),[2],0.03 ± 0.03
same,pEC50,"[2]; read-out: EC50, enhancement of Nav1.4-mediated Ilate",8.40
same,pEC50,[2]; read-out: Nav1.4 Ilate EC50,8.39
same,pEC50,[2]; read-out: Nav1.4 Ipeak EC50,9.04
same,Nav1.2 Ilate FC^Max (maximal fold change),[3],3.0 ± 0.1
same,Nav1.2 τ inact,[3],0.88 ± 0.1 ms and 0.76 ± 0.05 ms and 0.64 ± 0.14 ms
same,pEC50,[3]; read-out: Nav1.2 Ilate EC50,11.28
same,Gmax^Rel of Nav1.5,[4],1.2 ± 0.1
same,depolarizing shift in V0.5 of Nav1.5,[4],8.7 ± 1.2 mV
same,depolarizing shift ΔV0.5 of Nav1.5,[4],10.8 ± 2.0 mV
same,relative Gmax of Nav1.5,[4],0.4 ± 0.04
same,decrease in Nav1.7 maximal conductance,[5],~ 70%
same,leftward shift in activation ΔV0.5 of Nav1.7,[5],6.8 ± 0.7 mV
same,shift in the voltage dependence of activation of Nav1.7,[5],−10.0 ± 0.6 mV
